The source of these data is patent US20220274938A1, “5-[(1S)-1-(4-BROMOPHENOXY)ETHYL]-2H-TETRAZOLE DERIVATIVES AND RELATED COMPOUNDS AS CLC-1 ION CHANNEL INHIBITORS FOR TREATING NEUROMUSCULAR DISORDERS” (NMD PHARMA A/S, priority 2019, published 2022).

Format in all cases: cell-based
The test system of test [1] is isolated rat soleus muscles. As to the kind of experiment: Measurement of force in an in vitro model: isolated rat soleus nerve-muscle preparation with tubocurarine. The following applies: Rattus norvegicus, 40 min; 50 μM test compound, after 40 mins of compound exposure; 115 nM tubocurarine for 90 mins; read-out: Point increase (%) of initial force that was restored. As for the experimental part: FIG. 2. […] Force traces from a representative muscle stimulated to contract in 1) control condition before addition of neuromuscular blocking agent, 2) the force response to stimulation after 90 minutes incubation with Tubocurarine. […] The traces presented in panel A (1, 2, 3), correspond to the dotted lines in panel B, respectively.
Recovery of force is quantified as the percentage of the force prior to tubocurarine that is recovered by the compound.
The current disclosure relates to compounds that inhibit CIC-1 ion channels and increase muscle excitability and thereby improve muscle function in clinical conditions where muscle activation is failing. Such conditions result in loss of contractile function of skeletal muscle, weakness and excessive fatigue. In this series of experiments the compounds were tested for their ability to restore contractile function of isolated rat muscle when the neuromuscular transmission had been compromised akin to neuromuscular disorders.
Experimentally, soleus muscles from 4-5 week old rats were isolated with the motor nerve remaining attached. The nerve-muscle preparations were mounted in experimental setups that enabled electrical stimulation of the motor nerve. Stimulation of the motor nerve led to activation of the muscle fibres and ensuing force production that was recorded. The nerve-muscle preparations were also in these experiments incubated in the standard Krebs Ringer (see example 5) and the solution was heated to 30° C. and continuously equilibrated with a mixture of 95% O2 and 5% CO2, pH˜7.4.
After mounting the nerve-muscle preparation in the experimental setup, the contractile function of the muscle was initially assessed under the control conditions (FIG. 2A). […] The experimental condition mimics the failing neuromuscular transmission in a range of neuromuscular disorders. After addition of tubocurarine the contractile force declined over the next 90 mins to 10-50% of the control force. 50 μM of the test compound was then added and the contractile force recovered despite the continued presence of tubocurarine. To quantify the ability of the compound to restore force the percentage of the initial force that was restored was determined after 40 mins of compound exposure (FIG. 2B) and the point increase is reported in Table 3.

In the next test the target is T1, human CIC-1 channels (Homo sapiens, UniProt P35523).
T1 construct: host or cells: CHO (Chinese hamster ovary) cells, cryopreserved, used directly after thawing
As to the kind of experiment: Automated patch-clamp on the human isoform of CIC-1 expressed in CHO cells. The following applies: compound added to the intracellular solution vs control cell patches, positive shift reflects inhibition. As for the experimental part: The investigatory goal of these experiments was to evaluate how compounds affect the open probability and current amplitude of human CIC-1 channels expressed in CHO cells. Experiments were performed using an automated patch clamp system that allowed high throughput testing of whole cell patches together with both intracellular and extracellular addition of compound.
Automated whole cell patch clamp experiments were performed with the Qpatch 16 system (Sophion Bioscience, Ballerup, Denmark) at room temperature. Data acquisition and analysis were performed in the Qassay software (ver. 5.6, Odense).
To obtain tail currents, the membrane potential was stepped to −100 mV after each test voltage for 300 ms and then relaxed to −30 mV for 2 sec between sweeps (FIG. 3). I/V relationships for whole cell instant and steady state current amplitudes were obtained by plotting average current densities at the beginning and at the end of the 300 ms step against the membrane potential (FIG. 4).
In order to determine the relative overall open probability (Po), the instantaneous tail currents were normalized to the maximal tail current obtained following the most positive voltage step and plotted against the test voltage. Plots of normalized tail currents from each whole cell patch were then fitted to a Boltzmann function allowing determination of half activation voltages (V1/2, FIG. 5).
Osmolality adjusted to ˜320 using sucrose. Intracellular solutions contained: 80 mM CsF, 60 mM CsCl, 5/1 mM KOH/EGTA, 10 mM HEPES, 10 mM NaCl, pH adjusted to 7.2 with NaOH (2 M). Osmolality adjusted to ˜320 mOsm using sucrose.
Cells used in patch clamp experiments were Chinese hamster ovary cells (CHO) constitutively expressing human CIC-1 channels. The amino acid sequence encoded by the cDNA used to create this cell line was identical to the translated sequence for GenBank accession number NM_000083.2. Cells were produced by Charles River (Catalogue CT6175, Cleveland Ohio, USA) in a cryopreserved format. Experiments were performed on the cells directly after thawing (3×10^6 cells used in each experiment).
To evaluate the compound effect on CIC-1, when applied directly to the intracellular side of the cell membrane, the half activation voltage, V1/2, was determined from whole cell patches with compound added to the intracellular solution and then compared to V1/2 determined from control cell patches with only vehicle added to the intracellular solution. Additionally, the effect of extracellular added compound was evaluated by determine V1/2 and steady state current amplitudes before and after exchanging the extracellular solution to contain compound.
The difference in half activation voltage of CIC-1 channels, ΔV1/2, was determined as the difference between the cell patches treated intracellularly with compound and control cells patches and is reported in Table 4 below. A positive shift in ΔV1/2 is reflecting CIC-1 channel inhibition by the tested compound. P-values of <0.05 is considered significant.
In general terms: In patch-clamp work, channel activity is measured electrically.

The target of a further test is T2, CIC-1 ion channel (Rattus norvegicus, UniProt P35524).
T2 construct: CIC-1 channels in native tissue of rat skeletal muscle fibres; from tissue; host or cells: whole soleus muscle of 12-14 week old Wistar rats
T2 sequence (P35524 1-994): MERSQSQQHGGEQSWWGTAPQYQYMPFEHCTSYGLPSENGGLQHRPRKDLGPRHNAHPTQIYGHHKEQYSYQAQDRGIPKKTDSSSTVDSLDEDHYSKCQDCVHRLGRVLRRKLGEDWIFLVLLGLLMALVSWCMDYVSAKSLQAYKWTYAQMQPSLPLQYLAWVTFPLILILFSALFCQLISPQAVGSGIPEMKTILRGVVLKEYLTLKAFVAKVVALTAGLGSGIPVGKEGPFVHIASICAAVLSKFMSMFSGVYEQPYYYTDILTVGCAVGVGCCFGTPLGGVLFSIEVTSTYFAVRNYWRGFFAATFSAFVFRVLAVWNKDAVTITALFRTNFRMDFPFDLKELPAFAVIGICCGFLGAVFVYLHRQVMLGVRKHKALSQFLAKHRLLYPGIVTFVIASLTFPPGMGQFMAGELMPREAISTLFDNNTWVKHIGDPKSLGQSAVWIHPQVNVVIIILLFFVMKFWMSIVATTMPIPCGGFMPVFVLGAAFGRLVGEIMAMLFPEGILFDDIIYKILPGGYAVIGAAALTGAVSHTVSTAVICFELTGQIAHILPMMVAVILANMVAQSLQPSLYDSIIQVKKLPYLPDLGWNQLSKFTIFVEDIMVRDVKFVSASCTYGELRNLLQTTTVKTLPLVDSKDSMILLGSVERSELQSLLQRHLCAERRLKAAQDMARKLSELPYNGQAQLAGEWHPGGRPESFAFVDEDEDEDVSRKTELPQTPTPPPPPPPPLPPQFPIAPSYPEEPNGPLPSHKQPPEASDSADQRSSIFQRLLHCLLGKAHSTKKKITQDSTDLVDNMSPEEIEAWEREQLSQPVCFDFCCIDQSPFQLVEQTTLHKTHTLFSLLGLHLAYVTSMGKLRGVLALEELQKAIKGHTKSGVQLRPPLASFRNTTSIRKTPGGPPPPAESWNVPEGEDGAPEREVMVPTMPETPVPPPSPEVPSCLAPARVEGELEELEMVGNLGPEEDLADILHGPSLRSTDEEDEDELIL
As to the kind of experiment: Electrophysiological measurement (Gm, three micro-electrodes) of compound inhibition of CIC-1 in rat soleus muscle fibres. The following applies: approx. 30° C., four increasing compound concentrations, read-out: EC50 (inhibition of CIC-1 ion channel, reduction of Gm). From the text:
FIG. 1. […] Please note that the drawing illustrates only the impaled fibre although it is part of an intact muscle that contains many such fibres. All electrodes recorded the membrane potential of the fibre and the two peripheral electrodes were used to inject current (−30 nA, 50 ms). The electrodes were inserted with known inter-electrode distances (X1, X2 and X3). After insertion, current was passed first via the V1 electrode and then via the V3 electrode. The resulting deflections in the membrane voltage were measured by the other electrodes. The steady state deflections in membrane potential were measured and divided by the magnitude of the injected current (−30 nA) to obtain transfer resistances. These were next plotted against inter-electrode distances, and fitted to an exponential function (Panel B), from which Gm could be calculated using linear cable theory. The approach described in panel A and B, was repeated for several muscle fibres in the muscle during exposure at increasing concentrations of compound E-8, with approx. 10 fibres at each concentration. Average Gm at each concentration was plotted as a function of compound concentration in panel C, and fitted to a 4-parameter sigmoidal function from which the EC50 value for the compound was obtained (dashed line)
Apparent CIC-1 affinity was reported by the concentration of compound at which 50% of the compound's full inhibition of CIC-1 was observed (EC50).
CIC-1 Cl^− ion channels generate around 80% of the total membrane conductance (Gm) in resting skeletal muscle fibres of most animals including rat and human (Bretag, A H. Muscle chloride channels. Physiological Reviews, 1987, 67, 618-724). […] CIC-1 inhibition would in such recordings be reflected by a reduction of Gm.
Experimentally, Gm was measured in individual fibres of whole rat soleus muscles using a three micro-electrodes technique described in this example and in full detail elsewhere (Riisager et al., Determination of cable parameters in skeletal muscle fibres during repetitive firing of action potentials. Journal of Physiology, 2014, 592, 4417-4429). Briefly, intact rat soleus muscles were dissected out from 12-14 week old Wistar rats and placed in an experimental chamber that was perfused with a standard Krebs Ringer solution containing 122 mM NaCl, 25 mM NaHCO3, 2.8 mM KCl, 1.2 mM KH2PO4, 1.2 mM MgSO4, 1.3 mM CaCl2, 5.0 mM D-glucose. During experiments, the solution was kept at approx. 30° C. and continuously equilibrated with a mixture of 95% O2 and 5% CO2, pH˜7.4. The experimental chamber was placed in Nikon upright microscope that was used to visualize individual muscle fibres and the three electrodes (glass pipettes filled with 2 M potassium citrate). For Gm measurements, the electrodes were inserted into the same fibre with known inter-electrode distances of 0.35-0.5 mm (V1-V2, X1) and 1.1-1.5 mm (V1-V3, X3) (FIG. 1A). The membrane potential of the impaled muscle fibre was recorded by all electrodes. Two of the electrodes were furthermore used to inject 50 ms current pulses of −30 nA. […] The steady state voltage deflection at each distance was divided by the magnitude of current injected (−30 nA) and the resulting transfer resistances were plotted against inter-electrode distance and the data was fitted to a mono-exponential function from which Gm could be calculated using linear cable theory (FIG. 1B).
To establish a dose response relationship, Gm was first determined in 10 muscle fibres in the absence of compound and then at four increasing compound concentrations with Gm determinations in 5-10 fibres at each concentration. The average Gm values at each concentration were plotted against compound concentration and the data was fitted to sigmoidal function to obtain an EC50 value (FIG. 1C).

T1 sequence (P35523 whole entry): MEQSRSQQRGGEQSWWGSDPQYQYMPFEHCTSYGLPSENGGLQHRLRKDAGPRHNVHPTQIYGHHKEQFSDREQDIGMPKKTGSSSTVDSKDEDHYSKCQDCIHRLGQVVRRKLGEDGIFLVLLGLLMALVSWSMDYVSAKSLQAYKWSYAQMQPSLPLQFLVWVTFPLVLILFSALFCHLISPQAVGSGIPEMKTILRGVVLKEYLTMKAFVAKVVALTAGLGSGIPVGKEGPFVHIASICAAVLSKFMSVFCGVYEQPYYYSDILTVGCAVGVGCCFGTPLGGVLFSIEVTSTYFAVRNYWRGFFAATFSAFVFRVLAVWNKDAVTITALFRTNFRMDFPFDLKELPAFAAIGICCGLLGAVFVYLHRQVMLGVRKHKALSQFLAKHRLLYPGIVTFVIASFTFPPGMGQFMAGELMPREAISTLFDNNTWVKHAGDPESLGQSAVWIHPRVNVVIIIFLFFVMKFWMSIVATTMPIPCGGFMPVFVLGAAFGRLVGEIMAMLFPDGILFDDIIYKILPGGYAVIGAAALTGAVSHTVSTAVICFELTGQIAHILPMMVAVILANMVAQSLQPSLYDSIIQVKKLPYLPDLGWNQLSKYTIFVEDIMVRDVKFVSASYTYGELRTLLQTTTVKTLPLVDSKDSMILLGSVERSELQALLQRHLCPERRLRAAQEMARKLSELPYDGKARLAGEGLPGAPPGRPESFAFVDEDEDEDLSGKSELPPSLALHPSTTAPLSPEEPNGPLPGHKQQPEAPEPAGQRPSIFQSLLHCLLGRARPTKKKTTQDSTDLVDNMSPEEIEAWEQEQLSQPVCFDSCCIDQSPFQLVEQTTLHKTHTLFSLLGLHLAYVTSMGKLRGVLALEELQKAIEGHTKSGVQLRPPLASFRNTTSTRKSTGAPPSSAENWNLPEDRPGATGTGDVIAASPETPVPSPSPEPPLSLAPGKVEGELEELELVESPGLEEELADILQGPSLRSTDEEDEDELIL

Take `CC(=O)N1CCC(ONC(=O)[C@H](C)Oc2ccc(Br)cc2)C1` (stereo partly drawn) [Compound C-8]: in test [1], the activation at 50 µM was 45%. The “ΔV1/2 (difference in half activation voltage of CIC-1 channels)” value on human CIC-1 channels was 10.3 mV.
As a reminder, the EC50 is the concentration at which the effect is half-maximal. In the case of `C[C@H](Oc1ccc(Cl)cc1)C(=O)NOCC1CC1` [Compound C-74, (2S)-2-(4-chlorophenoxy)-N-(cyclopropylmethoxy)propanamide], the EC50 on CIC-1 ion channel stood at 3.4 µM. Also, the activation at 50 µM in test [1] amounted to 22%.
With `CC(C)[C@H](Oc1ccc(Br)cc1)C(=O)NC#N` [Compound B-5, (2S)-2-(4-bromophenoxy)-N-cyano-3-methylbutanamide], the EC50 at CIC-1 ion channel was determined as 19.6 µM. Further, at human CIC-1 channels, the “ΔV1/2 (difference in half activation voltage of CIC-1 channels)” value was 26.6 mV.
`C[C@H](Oc1ccc(Cl)cc1)C(=O)NOCC1CCC1` [Compound C-75, (2S)-2-(4-chlorophenoxy)-N-(cyclobutylmethoxy)propanamide]: at CIC-1 ion channel, the EC50 was found to be 2 µM. Moreover, in test [1], the activation at 50 µM came to 36%.
For the molecule `CONC(=O)[C@H](C)Oc1ccc(Cl)cc1` [Compound C-85, (2S)-2-(4-chlorophenoxy)-N-methoxypropanamide], the EC50 on CIC-1 ion channel was determined as 10.1 µM. Further, the activation at 50 µM in test [1] worked out at 45%.
Regarding `C[C@H](Oc1ccc(Br)cc1Br)C(=O)NC#N` [Compound B-2, (2S)-N-cyano-2-(2,4-dibromophenoxy)propanamide], at human CIC-1 channels, the “ΔV1/2 (difference in half activation voltage of CIC-1 channels)” value is 6.2 mV.
For `CC[C@H](Oc1ccc(Br)cc1)c1nn[nH]n1` [Compound E-5, 5-[(1S)-1-(4-bromophenoxy)propyl]-2H-1,2,3,4-tetrazole], the “ΔV1/2 (difference in half activation voltage of CIC-1 channels)” value at human CIC-1 channels is on record as 13.9 mV.
Regarding `COC(=O)CONC(=O)[C@H](C)Oc1ccc(Cl)cc1` [Compound C-78, methyl 2-{[(2S)-2-(4-chlorophenoxy)propanamido]oxy}acetate], the EC50 at CIC-1 ion channel was determined as 3.1 µM. For the same molecule, the activation at 50 µM in test [1] was 41%.
For `C[C@H](Oc1ccc(Cl)cc1)C(=O)NC#N` [Compound B-4, (2S)-2-(4-chlorophenoxy)-N-cyanopropanamide], the “ΔV1/2 (difference in half activation voltage of CIC-1 channels)” value at human CIC-1 channels amounted to 21.2 mV.
Take `CC(=O)NCCON(C(C)=O)C(=O)[C@H](C)Oc1ccc(Cl)cc1` [Compound C-22, (2S)-N-acetyl-2-(4-chlorophenoxy)-N-(2-acetamidoethoxy)propanamide]: on CIC-1 ion channel, the half-maximal effective concentration (EC50) was 7.8 µM. Also, the activation at 50 µM in test [1] amounted to 22%.
Consider `CCCONC(=O)[C@H](C)Oc1ccc(Cl)cc1` [Compound C-83, (2S)-2-(4-chlorophenoxy)-N-propoxypropanamide], for which the half-maximal effective concentration (EC50) at CIC-1 ion channel is 3.5 µM.
For the molecule `CONC(=O)[C@H](C)Oc1ccc(Br)cc1F` [Compound C-64, (2S)-2-(4-bromo-2-fluorophenoxy)-N-methoxypropanamide], the EC50 at CIC-1 ion channel amounted to 3.1 µM. For the same molecule, in test [1], the activation at 50 µM came out at 24%.
Regarding `C/C(=N\O)NC(=O)[C@@H](Oc1ccc(Br)cc1F)C(C)C` [Compound A-4, (2S)-2-(4-bromo-2-fluorophenoxy)-N-[1(hydroxyimino)ethyl]-3-methylbutanamide], the concentration for a half-maximal effect (EC50) at CIC-1 ion channel turned out to be 2.2 µM.
